Laboratory results as given in patent US9751885B2, “Cyclopropanamine compound and use thereof” (Takeda Pharmaceutical Company Limited, priority 2012, dated 2017).
Values joined by “and” are separate entries in the source; they are usually repeats but may differ in a detail not shown here. Equal values may be shown once. Where a name gives a salt, the structure may show the parent alone. Read-outs that look alike come from different tables or passages of the source. Marks after values point to notes of the source that are not given here.

Key:
[1] = system: Gad1 H3K4me2 level in rat primary culture neurons; test: Gad1 H3K4 methylation induction activity in rat primary culture neurons (ChIP-qPCR); type: cell-based; conditions: control without compound = 100%; for activity at 1 µM / activity at 10 µM: Rattus norvegicus, Neuron, 72 h; for activity at 1 µM: read-out: Gad1 H3K4me2 induction activity (%), compound 1 μM, 3 days, rat primary culture neurons; for activity at 10 µM: read-out: Gad1 H3K4me2 induction activity (%), compound 10 μM, 3 days, rat primary culture neurons; for Gad1 H3K4me2 induction activity (%): 3 days, rat primary culture neurons
Protocol: Gad1 H3K4 Methylation Induction Activity in Rat Primary Culture Neurons
Thereafter, the compound was added to final concentrations of 1 or 10 μM, and the cells were further cultured for 3 days. The culture supernatant was aspirated, ice-cold PBS was added, and the cell suspension was collected on ice using CELL SCRAPER (IWAKI). […] (750 μL). Furthermore, 0.3% NP40/cell lysis buffer 1 (750 μL) was added, and the cells were lysed by incubating for 5 min on ice.
Using the DNA obtained by the chromatin immunoprecipitation as a template, quantitative PCR of the Gad1 gene upstream genomic region was performed, and the measurement value was taken as the Gad1 H3K4me2 level. […] The Gad1 H3K4me2 induction by the compound was expressed by the H3K4me2 level when the compound was added, as compared to the H3K4me2 level of the control (without addition of the compound) as 100%.

[2] = system: white blood cell number, red blood cell number, platelet number; test: Evaluation of blood cell number in mouse; type: in vivo; conditions: oral, Day 2 after administration
How it was run: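 Male ICR mice dosed orally at 1, 10, 50 or 100 mg/kg (suspension in 0.5% methylcellulose/0.02% citric acid/water); whole blood collected on Day 2. White cell, red cell and platelet counts per unit volume by automated haematology analyser, expressed as % of mean of untreated control group.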

[3] = Evaluation of hippocampal distribution in mouse; type: in vivo; conditions: male ICR mice, 10 mg/kg oral; for concentration at 1 h: 1 hr after administration; for concentration at 0.5 h: 0.5 hr after administration
How it was run: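 Male ICR mice dosed orally at 10 mg/kg as suspension in 0.5% methylcellulose/0.02% citric acid/water. Plasma and hippocampus sampled together at 0.5, 1 or 1.5 h; LC/MS/MS concentrations gave hippocampus/plasma ratio.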

[4] = hippocampus, read-out: hippocampus concentration (mean)
[5] = plasma, read-out: plasma concentration (mean)

In the case of Cn1cc(NC(=O)c2cccc([C@@H]3C[C@H]3NCC3CC3)c2)cn1 (relative stereo) [Example 59, 3-(trans-2-((cyclopropylmethyl)amino)cyclopropyl)-N-(1-methyl-1H-pyrazol-4-yl)benzamide dihydrochloride], the activity at 1 µM [1] is reported as 206%, the activity at 10 µM [1] is reported as 161% and the “platelet number, percentage of compound administration group compared to control group, mean” value (shortened to “platelet number, percentage”) ([2]; 10 mg/kg) is reported as 91.9%. For the same molecule, the “red blood cell number, percentage of compound administration group compared to control group, mean” value (shortened to “red blood cell number, percentage”) ([2]; 10 mg/kg) was 101.1%, the “white blood cell number, percentage of compound administration group compared to control group, mean” value (“white blood cell number, percentage” for short) ([2]; 10 mg/kg) was 128.1% and the “platelet number, percentage” value ([2]; 100 mg/kg) was 91.2%. For the same molecule, the “red blood cell number, percentage” value ([2]; 100 mg/kg) was 93.3% and the “white blood cell number, percentage” value ([2]; 100 mg/kg) was 98.8%.

In the case of Cc1nnc(NC(=O)c2cccc([C@@H]3C[C@H]3NCC3CC3)c2)s1 (relative stereo) [Example 96, 3-(trans-2-((cyclopropylmethyl)amino)cyclopropyl)-N-(5-methyl-1,3,4-thiadiazol-2-yl)benzamide hydrochloride], the concentration at 1 h [3, 4] is reported as 602 ng/g, the concentration at 1 h [3, 5] is reported as 1060 ng/mL and the activity at 1 µM [1] is reported as 122%. For the same molecule, the activity at 10 µM [1] was 151%, the “platelet number, percentage” value ([2]; 1 mg/kg) was 100.9^b % and the “red blood cell number, percentage” value ([2]; 1 mg/kg) was 107.4^b %. For the same molecule, the “white blood cell number, percentage” value ([2]; 1 mg/kg) was 116.6^b %, the “platelet number, percentage” value ([2]; 10 mg/kg, hydrochloride) was 102.1% and 101.0^c % and the “red blood cell number, percentage” value ([2]; 10 mg/kg, hydrochloride) was 97.9% and 102.6^c %. For the same molecule, the “white blood cell number, percentage” value ([2]; 10 mg/kg, hydrochloride) was 61.5% and 122.4^c %, the “platelet number, percentage” value ([2]; 100 mg/kg) was 102.4% and the “red blood cell number, percentage” value ([2]; 100 mg/kg) was 100.7%. The “white blood cell number, percentage” value ([2]; 100 mg/kg) was 65.5%.

For O=C(NC1CC(F)(F)C1)c1cccc([C@@H]2C[C@H]2NCC2CC2)c1 (relative stereo) [Example 99, 3-(trans-2-((cyclopropylmethyl)amino)cyclopropyl)-N-(3,3-difluorocyclobutyl)benzamide hydrochloride], the concentration at 1 h [3, 4] was 283 ng/g, the concentration at 1 h [3, 5] was 143 ng/mL and the activity at 1 µM [1] was 174%. For the same molecule, the activity at 10 µM [1] was 181%, the “platelet number, percentage” value ([2]; 10 mg/kg) was 116.9% and the “red blood cell number, percentage” value ([2]; 10 mg/kg) was 102.8%. For the same molecule, the “white blood cell number, percentage” value ([2]; 10 mg/kg) was 66.0%, the “platelet number, percentage” value ([2]; 100 mg/kg) was 111.1% and the “red blood cell number, percentage” value ([2]; 100 mg/kg) was 101.5%. For the same molecule, the “white blood cell number, percentage” value ([2]; 100 mg/kg) was 79.4%.

In the case of CCn1cc(NC(=O)c2cccc([C@@H]3C[C@H]3NCC3CC3)c2)cn1 (relative stereo) [Example 101, 3-(trans-2-((cyclopropylmethyl)amino)cyclopropyl)-N-(1-ethyl-1H-pyrazol-4-yl)benzamide dihydrochloride], the concentration at 0.5 h [3, 4] is reported as 181 ng/g, the concentration at 0.5 h [3, 5] is reported as 907 ng/mL and the activity at 1 µM [1] is reported as 128%. The activity at 10 µM [1] was 135%, the “platelet number, percentage” value ([2]; 10 mg/kg) was 107.9% and the “red blood cell number, percentage” value ([2]; 10 mg/kg) was 99.2%. The “white blood cell number, percentage” value ([2]; 10 mg/kg) was 121.8%, the “platelet number, percentage” value ([2]; 100 mg/kg) was 108.9% and the “red blood cell number, percentage” value ([2]; 100 mg/kg) was 98.5%. For the same molecule, the “white blood cell number, percentage” value ([2]; 100 mg/kg) was 100.4%.

Molecule Cc1cc(NC(=O)c2cccc([C@@H]3C[C@H]3NCC3CC3)c2)no1 (relative stereo) [Example 103, 3-(trans-2-((cyclopropylmethyl)amino)cyclopropyl)-N-(5-methyl-1,2-oxazol-3-yl)benzamide hydrochloride] has a concentration at 1 h [3, 4] of 1030 ng/g, a concentration at 1 h [3, 5] of 375 ng/mL and an activity at 1 µM [1] of 139%. The activity at 10 µM [1] was 134%, the “platelet number, percentage” value ([2]; 10 mg/kg) was 88.7% and the “red blood cell number, percentage” value ([2]; 10 mg/kg) was 95.0%. For the same molecule, the “white blood cell number, percentage” value ([2]; 10 mg/kg) was 100.9%, the “platelet number, percentage” value ([2]; 100 mg/kg) was 96.8% and the “red blood cell number, percentage” value ([2]; 100 mg/kg) was 98.5%. For the same molecule, the “white blood cell number, percentage” value ([2]; 100 mg/kg) was 105.9%.

Molecule Cc1nnc(NC(=O)c2cccc([C@@H]3C[C@H]3NC3CCC(F)(F)CC3)c2)s1 (relative stereo) [Example 166, 3-(trans-2-((4,4-difluorocyclohexyl)amino)cyclopropyl)-N-(5-methyl-1,3,4-thiadiazol-2-yl)benzamide dihydrochloride] has an activity at 1 µM [1] of 98% and an activity at 10 µM [1] of 147%.

With Cc1nnc(NC(=O)c2ccc(C)c([C@@H]3C[C@H]3NC3CCOCC3)c2)s1 (relative stereo) [Example 184, 4-methyl-N-(5-methyl-1,3,4-thiadiazol-2-yl)-3-(trans-2-(tetrahydro-2H-pyran-4-ylamino)cyclopropyl)benzamide dihydrochloride] the activity at 1 µM [1] was 136% and the activity at 10 µM [1] was 122%.

For Cc1nnc(NC(=O)c2cccc(C3CC3NCC3CC3)c2)s1 (single isomer, unassigned) [Example 97, 3-(trans-2-((cyclopropylmethyl)amino)cyclopropyl)-N-(5-methyl-1,3,4-thiadiazol-2-yl)benzamide hydrochloride (Optical Isomer, Retention Time Short)], the “Gad1 H3K4me2 induction activity (%)” value ([1]; compound 1 μM) was 100%, the “Gad1 H3K4me2 induction activity (%)” value ([1]; compound 10 μM) was 111% and the “platelet number, percentage” value ([2]; 1 mg/kg) was 99.4^b %. For the same molecule, the “red blood cell number, percentage” value ([2]; 1 mg/kg) was 102.7^b %, the “white blood cell number, percentage” value ([2]; 1 mg/kg) was 114.4^b % and the “platelet number, percentage” value ([2]; 10 mg/kg) was 105.2^c %. For the same molecule, the “red blood cell number, percentage” value ([2]; 10 mg/kg) was 105.0^c % and the “white blood cell number, percentage” value ([2]; 10 mg/kg) was 100.7^c %.

In the case of Cc1nnc(NC(=O)c2cccc(C3CC3NCC3CC3)c2)s1 (single isomer, unassigned) [Example 98, 3-(trans-2-((cyclopropylmethyl)amino)cyclopropyl)-N-(5-methyl-1,3,4-thiadiazol-2-yl)benzamide hydrochloride (Optical Isomer, Retention Time Long)], the activity at 1 µM [1] is reported as 114%, the “Gad1 H3K4me2 induction activity (%)” value ([1]; compound 10 μM) is reported as 133% and the “platelet number, percentage” value ([2]; 1 mg/kg) is reported as 105.4^b %. For the same molecule, the “red blood cell number, percentage” value ([2]; 1 mg/kg) was 103.6^b %, the “white blood cell number, percentage” value ([2]; 1 mg/kg) was 96.5^b % and the “platelet number, percentage” value ([2]; 10 mg/kg) was 102.0^c %. The “red blood cell number, percentage” value ([2]; 10 mg/kg) was 105.6^c % and the “white blood cell number, percentage” value ([2]; 10 mg/kg) was 106.5^c %.
